“And” between values parts separate entries of the source, which are not always exact repeats. Identical values can stand only once. Like-named read-outs stand apart in the source and are kept apart here.
Tests used:
[1] = test system: internal mammary artery (IMA); assay type: cell-based; set-up: Diameter of the conduit, 0 hrs. / Diameter of the conduit, 2 hrs. / Diameter of the conduit, 12 hrs. / Diameter of the conduit, 24 hrs. / Diameter of the conduit, 48 hrs. / Diameter of the conduit, 72 hrs.: unit not given here
radial artery = assay type: cell-based; set-up: Diameter of the conduit, 0 hrs. / Diameter of the conduit, 2 hrs. / Diameter of the conduit, 12 hrs. / Diameter of the conduit, 24 hrs. / Diameter of the conduit, 72 hrs.: unit not given here
saphenous vein = assay type: cell-based; set-up: Diameter of the conduit, 0 hrs. / Diameter of the conduit, 2 hrs. / Diameter of the conduit, 12 hrs. / Diameter of the conduit, 24 hrs. / Diameter of the conduit, 48 hrs. / Diameter of the conduit, 72 hrs.: unit not given here
[2] = topical vasodilators used to overcome vasospasm; cited from earlier work
[3] = IMA, NTG 0.5 micromol/L, verapamil 100 nanomol/L
[4] = Radial, NTG 0.5 micromol/L, verapamil 100 nanomol/L
[5] = Vein, NTG 0.5 micromol/L, verapamil 100 nanomol/L

O=[N+]([O-])OCC(CO[N+](=O)[O-])O[N+](=O)[O-] [NTG, nitroglycerine]
Aug % (maximum increase in diameter at a given time point compared to baseline) [1]: 73% and 50% and 47%
Diameter of the conduit, 0 hrs. [1]: 1.5 and 2.2 and 2.3
Diameter of the conduit, 2 hrs. [1]: 2.1 and 2.4 and 2.7
Diameter of the conduit, 12 hrs. [1]: 2.3 and 2.5 and 2.8
Diameter of the conduit, 24 hrs. [1]: 2.3 and 2.6
Diameter of the conduit, 48 hrs. [1]: 2.4 and 2.8 and 2.9
Diameter of the conduit, 72 hrs. [1]: 2.9 and 3.1 and 3.4
Aug % (maximum increase in diameter at a given time point compared to baseline) (radial artery): 52% and 44% and 42%
Diameter of the conduit, 0 hrs. (radial artery): 2.5 and 2.3 and 2.6
Diameter of the conduit, 2 hrs. (radial artery): 2.9 and 3.0 and 3.3
Diameter of the conduit, 12 hrs. (radial artery): 3.6 and 3.0 and 3.5
Diameter of the conduit, 24 hrs. (radial artery): 3.8 and 2.9 and 3.7
Diameter of the conduit, 48 hrs. (radial artery): 3.7
Diameter of the conduit, 72 hrs. (radial artery): 3.8 and 3.3 and 3.7
Aug % (maximum increase in diameter at a given time point compared to baseline) (saphenous vein): 66% and 67% and 51%
Diameter of the conduit, 0 hrs. (saphenous vein): 2.4 and 3.7 and 2.7
Diameter of the conduit, 2 hrs. (saphenous vein): 4.0 and 6.2
Diameter of the conduit, 12 hrs. (saphenous vein): 3.8 and 6.0 and 4.1
Diameter of the conduit, 24 hrs. (saphenous vein): 4.1 and 5.9 and 3.8
Diameter of the conduit, 48 hrs. (saphenous vein): 3.7 and 6.1 and 3.9
Diameter of the conduit, 72 hrs. (saphenous vein): 3.7 and 6.2

COc1ccc(Cc2nccc3cc(OC)c(OC)cc23)cc1OC [papaverine]
increase in free flow [2]: 70%

COc1ccc(CCN(C)CCCC(C#N)(c2ccc(OC)c(OC)c2)C(C)C)cc1OC (stereo not shown) [verapamil]
Diameter of the conduit, 2 hrs. [1, 3]: 2.4 and 2.1 and 2.7
Diameter of the conduit, 12 hrs. [1, 3]: 2.6 and 2.4 and 2.8
Diameter of the conduit, 24 hrs. [1, 3]: 2.5 and 2.3 and 2.9
Diameter of the conduit, 48 hrs. [1, 3]: 3.0 and 2.5
Diameter of the conduit, 72 hrs. [1, 3]: 2.9 and 2.7 and 3.1
Aug % (maximum increase in diameter at a given time point compared to baseline) [1, 3]: 61% and 59% and 64%
Diameter of the conduit, 0 hrs. ([1]; IMA, baseline 0 hrs, Kreb's solution 37° C., NTG 0.5 micromol/L, verapamil 100 nanomol/L): 1.8 and 1.7 and 1.9
Diameter of the conduit, 2 hrs. (radial artery; [4]): 3.5 and 3.9 and 4.1
Diameter of the conduit, 12 hrs. (radial artery; [4]): 3.5 and 3.9
Diameter of the conduit, 24 hrs. (radial artery; [4]): 3.8
Diameter of the conduit, 48 hrs. (radial artery; [4]): 3.6 and 3.8
Diameter of the conduit, 72 hrs. (radial artery; [4]): 3.6 and 3.9
Aug % (maximum increase in diameter at a given time point compared to baseline) (radial artery; [4]): 57% and 62% and 52%
Diameter of the conduit, 0 hrs. (radial artery; Radial, baseline 0 hrs, Kreb's solution 37° C., NTG 0.5 micromol/L, verapamil 100 nanomol/L): 2.3 and 2.4 and 2.7
Diameter of the conduit, 2 hrs. (saphenous vein; [5]): 5.1 and 5.2 and 5.5
Diameter of the conduit, 12 hrs. (saphenous vein; [5]): 4.8 and 5.7 and 5.3
Diameter of the conduit, 24 hrs. (saphenous vein; [5]): 5.0 and 5.8 and 5.2
Diameter of the conduit, 48 hrs. (saphenous vein; [5]): 4.7 and 5.7 and 5.5
Diameter of the conduit, 72 hrs. (saphenous vein; [5]): 4.8 and 5.8 and 5.4
Aug % (maximum increase in diameter at a given time point compared to baseline) (saphenous vein; [5]): 70% and 65% and 66%
Diameter of the conduit, 0 hrs. (saphenous vein; Vein, baseline 0 hrs, Kreb's solution 37° C., NTG 0.5 micromol/L, verapamil 100 nanomol/L): 3.0 and 3.5 and 3.3

From patent US20020168396A1 (priority 2001, published 2002)
